Active and inactive are the calls of the source.
What was measured:
[1] = target: Cytochrome P450 3A4 (Homo sapiens, UniProt P08684); conditions: Potency;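 note: confirmatory qHTS run detecting inhibitors and substrates of CYP3A4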
[2] = target: T1, SUMO-activating enzyme (Homo sapiens, UniProt Q9UBT2); assay: inhibitors of in vitro SUMOylation cascade, primary screen, biochemical, HTRF, uHTS (AID 2006); type: protein-complex assay
[3] = target: Polyadenylate-binding protein 1 (Homo sapiens, UniProt P11940); assay: PABP poly(A) RNA binding inhibitors, primary screen, biochemical, fluorescence polarization, uHTS (AID 2014)
Chain of Polyadenylate-binding protein 1 (P11940 whole entry): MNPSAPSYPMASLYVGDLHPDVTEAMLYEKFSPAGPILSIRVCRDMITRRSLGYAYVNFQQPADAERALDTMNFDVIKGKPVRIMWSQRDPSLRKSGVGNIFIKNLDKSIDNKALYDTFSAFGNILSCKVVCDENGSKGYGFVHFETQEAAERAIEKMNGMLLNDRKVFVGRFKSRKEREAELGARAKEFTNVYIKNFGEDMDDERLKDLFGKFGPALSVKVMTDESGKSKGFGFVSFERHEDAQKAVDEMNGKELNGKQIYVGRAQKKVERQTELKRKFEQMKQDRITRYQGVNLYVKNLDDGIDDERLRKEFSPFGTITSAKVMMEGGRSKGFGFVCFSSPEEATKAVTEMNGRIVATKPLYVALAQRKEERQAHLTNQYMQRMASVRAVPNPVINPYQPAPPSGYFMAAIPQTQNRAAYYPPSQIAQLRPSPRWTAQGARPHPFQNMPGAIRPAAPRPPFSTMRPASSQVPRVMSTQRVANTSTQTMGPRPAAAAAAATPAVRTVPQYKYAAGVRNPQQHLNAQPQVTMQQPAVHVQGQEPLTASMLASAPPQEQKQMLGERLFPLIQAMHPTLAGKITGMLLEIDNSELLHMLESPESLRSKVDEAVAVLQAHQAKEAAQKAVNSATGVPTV

[4] = target: Serine/threonine-protein phosphatase PP1-alpha catalytic subunit (Homo sapiens, UniProt P62136); assay: PP1 phosphatase inhibitors, dose response, biochemical, fluorescence (AID 2403);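 note: phosphatase turnover of OMFP into fluorescent 3-O-methylfluorescein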
Chain of Serine/threonine-protein phosphatase PP1-alpha catalytic subunit (P62136 whole entry): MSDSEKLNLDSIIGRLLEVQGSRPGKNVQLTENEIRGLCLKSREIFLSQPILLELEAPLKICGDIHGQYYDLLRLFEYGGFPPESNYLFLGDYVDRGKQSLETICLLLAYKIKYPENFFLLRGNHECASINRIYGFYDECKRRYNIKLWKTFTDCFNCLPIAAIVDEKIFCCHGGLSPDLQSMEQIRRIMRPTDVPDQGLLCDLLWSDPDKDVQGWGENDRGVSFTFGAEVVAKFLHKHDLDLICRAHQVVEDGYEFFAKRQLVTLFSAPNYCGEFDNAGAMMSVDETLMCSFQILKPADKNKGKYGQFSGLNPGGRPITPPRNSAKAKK

[5] = target: Eukaryotic translation initiation factor 4H (Homo sapiens, UniProt Q15056); assay: human eIF4H binding inhibitors, primary screen, translation initiation inhibitor project, biochemical, uHTS, fluorescence polarization (AID 2012)
[6] = target: T1, SUMO-activating enzyme; assay: SUMOylation inhibitor hit validation, confirmation, SUMOylation inhibitor project, biochemical, AlphaScreen (AID 2018); type: functional
[7] = target: T2, Serine/threonine-protein phosphatase (Homo sapiens, UniProt Q9BPW0); assay: Counterscreen for inhibitors of PP1: fluorescence-based biochemical high throughput dose response assay to identify inhibitors of Protein Phosphatase 5 (PP5). [Related pubchem assays: 2034 (Summary (PP5 inhibitors)), 1987 (PP5 inhibitors in singlate), 2235 (PP1 inhibitors in singlate)]
T2 sequence (Q9BPW0 whole entry): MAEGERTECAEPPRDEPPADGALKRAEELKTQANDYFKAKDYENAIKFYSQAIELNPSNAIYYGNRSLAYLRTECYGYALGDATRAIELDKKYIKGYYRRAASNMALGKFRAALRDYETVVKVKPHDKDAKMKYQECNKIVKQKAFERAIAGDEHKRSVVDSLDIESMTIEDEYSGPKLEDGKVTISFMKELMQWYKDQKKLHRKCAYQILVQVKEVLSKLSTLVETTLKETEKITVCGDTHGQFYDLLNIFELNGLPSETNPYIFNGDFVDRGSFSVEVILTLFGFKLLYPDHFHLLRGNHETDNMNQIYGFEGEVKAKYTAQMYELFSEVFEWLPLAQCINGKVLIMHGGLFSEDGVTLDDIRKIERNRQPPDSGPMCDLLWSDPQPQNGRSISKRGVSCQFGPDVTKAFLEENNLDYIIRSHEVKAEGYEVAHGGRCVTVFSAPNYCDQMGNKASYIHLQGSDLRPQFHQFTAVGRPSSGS

[8] = cytotoxicity in HEK-293T cells, dose response, cytotoxicity control for BCR NF-kB inhibitor project, luminescence, B-cell screen hits (AID 489021); type: functional, cell-based;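 note: HEK-293T cells carrying an NF-kB luciferase reporter; cells exposed to compound for about 14 hours before viability readout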
[9] = target: T3, Epstein-Barr nuclear antigen 1 (Epstein-Barr virus (strain B95-8) (HHV-4) (Human herpesvirus 4), UniProt P03211); assay: EBNA-1 inhibitors, dose response, biochemical, fluorescence polarization, 1536-well (AID 2381); design: species or system human gammaherpesvirus 4;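 note: fluorescence polarization of a Cy5 DNA probe bound by EBNA-1 protein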
T3 sequence (P03211 whole entry): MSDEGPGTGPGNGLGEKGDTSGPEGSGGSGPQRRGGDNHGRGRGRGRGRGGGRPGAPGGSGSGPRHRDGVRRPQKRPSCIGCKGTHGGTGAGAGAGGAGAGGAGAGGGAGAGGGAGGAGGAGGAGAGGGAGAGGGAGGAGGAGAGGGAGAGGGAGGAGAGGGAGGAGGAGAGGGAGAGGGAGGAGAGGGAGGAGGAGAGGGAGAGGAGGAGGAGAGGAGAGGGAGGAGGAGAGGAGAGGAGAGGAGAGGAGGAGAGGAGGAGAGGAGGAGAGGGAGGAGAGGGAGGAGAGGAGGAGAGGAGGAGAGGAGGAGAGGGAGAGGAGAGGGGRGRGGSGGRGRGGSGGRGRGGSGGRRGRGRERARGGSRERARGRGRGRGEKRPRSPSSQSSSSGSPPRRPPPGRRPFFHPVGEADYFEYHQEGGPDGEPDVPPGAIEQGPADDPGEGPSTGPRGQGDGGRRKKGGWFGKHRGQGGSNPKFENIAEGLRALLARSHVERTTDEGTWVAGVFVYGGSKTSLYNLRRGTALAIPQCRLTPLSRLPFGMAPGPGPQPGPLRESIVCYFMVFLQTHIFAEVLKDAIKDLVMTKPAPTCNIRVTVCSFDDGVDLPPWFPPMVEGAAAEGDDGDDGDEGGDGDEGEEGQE

[10] = target: Peroxisome proliferator-activated receptor gamma/Nuclear receptor coactivator 2 (Homo sapiens, UniProt P37231); assay: (§1) TR-FRET dose response biochemical High Throughput Screening assay for agonists of the steroid receptor coactivator 2 (SRC-2) recruitment by the peroxisome proliferator-activated receptor gamma (PPAR gamma): non-selective agonists. [Related pubchem assays: 1297, 1032 ]; type: functional
[11] = target: Peroxisome proliferator-activated receptor gamma/Nuclear receptor coactivator 1 (Homo sapiens, UniProt P37231); assay: as §1, with “1 (SRC-1)” for “2 (SRC-2)”, “assays (depositor defined):AID1300, AID1808, AID504735, AID631]” for “assays: 1297, 1032 ]”; type: protein assay
[12] = target: T4, Lytic switch protein BZLF1 (Epstein-Barr virus (strain B95-8) (HHV-4) (Human herpesvirus 4), UniProt P03206); assay: EBV ZTA inhibitors, dose response, counter-screen for EBNA-1 inhibitor project, biochemical, fluorescence polarization, Epstein-Barr virus, 1536-well (AID 2377); design: species or system human gammaherpesvirus 4;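 note: fluorescence polarization of Cy5-labelled ZRE DNA probe bound by purified Zta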
T4 sequence (P03206 whole entry): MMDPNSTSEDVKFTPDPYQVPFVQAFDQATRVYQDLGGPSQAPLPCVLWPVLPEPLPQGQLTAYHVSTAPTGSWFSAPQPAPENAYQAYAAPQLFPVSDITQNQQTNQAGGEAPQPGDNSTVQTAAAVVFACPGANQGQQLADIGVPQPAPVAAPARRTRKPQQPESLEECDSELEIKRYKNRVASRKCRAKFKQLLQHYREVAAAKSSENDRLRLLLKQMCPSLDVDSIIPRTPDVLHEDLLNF

[13] = target: Peroxisome proliferator-activated receptor gamma/Nuclear receptor coactivator 3 (Homo sapiens, UniProt P37231); assay: as §1, with “3 (SRC-3)” for “2 (SRC-2)”, “1301 (Confirmation screen.), 1048 (Primary screen.)]” for “1297, 1032 ]”; type: functional
Chain of Peroxisome proliferator-activated receptor gamma/Nuclear receptor coactivator 3 (P37231 whole entry): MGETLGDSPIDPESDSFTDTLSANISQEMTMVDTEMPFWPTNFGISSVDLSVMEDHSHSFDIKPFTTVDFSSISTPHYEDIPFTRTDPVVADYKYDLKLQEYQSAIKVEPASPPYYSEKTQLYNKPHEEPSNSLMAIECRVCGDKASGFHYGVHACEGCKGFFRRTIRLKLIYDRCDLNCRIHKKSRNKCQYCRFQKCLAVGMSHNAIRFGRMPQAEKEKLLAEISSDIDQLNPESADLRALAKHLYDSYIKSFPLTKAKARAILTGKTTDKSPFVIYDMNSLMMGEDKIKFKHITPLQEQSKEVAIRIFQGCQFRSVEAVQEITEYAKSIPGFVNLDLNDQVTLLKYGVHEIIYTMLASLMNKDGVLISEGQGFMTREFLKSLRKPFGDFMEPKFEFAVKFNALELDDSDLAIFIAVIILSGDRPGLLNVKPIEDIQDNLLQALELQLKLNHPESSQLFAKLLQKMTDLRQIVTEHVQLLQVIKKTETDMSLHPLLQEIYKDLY
Chain of Peroxisome proliferator-activated receptor gamma/Nuclear receptor coactivator 3 (Q9Y6Q9 whole entry, further chain): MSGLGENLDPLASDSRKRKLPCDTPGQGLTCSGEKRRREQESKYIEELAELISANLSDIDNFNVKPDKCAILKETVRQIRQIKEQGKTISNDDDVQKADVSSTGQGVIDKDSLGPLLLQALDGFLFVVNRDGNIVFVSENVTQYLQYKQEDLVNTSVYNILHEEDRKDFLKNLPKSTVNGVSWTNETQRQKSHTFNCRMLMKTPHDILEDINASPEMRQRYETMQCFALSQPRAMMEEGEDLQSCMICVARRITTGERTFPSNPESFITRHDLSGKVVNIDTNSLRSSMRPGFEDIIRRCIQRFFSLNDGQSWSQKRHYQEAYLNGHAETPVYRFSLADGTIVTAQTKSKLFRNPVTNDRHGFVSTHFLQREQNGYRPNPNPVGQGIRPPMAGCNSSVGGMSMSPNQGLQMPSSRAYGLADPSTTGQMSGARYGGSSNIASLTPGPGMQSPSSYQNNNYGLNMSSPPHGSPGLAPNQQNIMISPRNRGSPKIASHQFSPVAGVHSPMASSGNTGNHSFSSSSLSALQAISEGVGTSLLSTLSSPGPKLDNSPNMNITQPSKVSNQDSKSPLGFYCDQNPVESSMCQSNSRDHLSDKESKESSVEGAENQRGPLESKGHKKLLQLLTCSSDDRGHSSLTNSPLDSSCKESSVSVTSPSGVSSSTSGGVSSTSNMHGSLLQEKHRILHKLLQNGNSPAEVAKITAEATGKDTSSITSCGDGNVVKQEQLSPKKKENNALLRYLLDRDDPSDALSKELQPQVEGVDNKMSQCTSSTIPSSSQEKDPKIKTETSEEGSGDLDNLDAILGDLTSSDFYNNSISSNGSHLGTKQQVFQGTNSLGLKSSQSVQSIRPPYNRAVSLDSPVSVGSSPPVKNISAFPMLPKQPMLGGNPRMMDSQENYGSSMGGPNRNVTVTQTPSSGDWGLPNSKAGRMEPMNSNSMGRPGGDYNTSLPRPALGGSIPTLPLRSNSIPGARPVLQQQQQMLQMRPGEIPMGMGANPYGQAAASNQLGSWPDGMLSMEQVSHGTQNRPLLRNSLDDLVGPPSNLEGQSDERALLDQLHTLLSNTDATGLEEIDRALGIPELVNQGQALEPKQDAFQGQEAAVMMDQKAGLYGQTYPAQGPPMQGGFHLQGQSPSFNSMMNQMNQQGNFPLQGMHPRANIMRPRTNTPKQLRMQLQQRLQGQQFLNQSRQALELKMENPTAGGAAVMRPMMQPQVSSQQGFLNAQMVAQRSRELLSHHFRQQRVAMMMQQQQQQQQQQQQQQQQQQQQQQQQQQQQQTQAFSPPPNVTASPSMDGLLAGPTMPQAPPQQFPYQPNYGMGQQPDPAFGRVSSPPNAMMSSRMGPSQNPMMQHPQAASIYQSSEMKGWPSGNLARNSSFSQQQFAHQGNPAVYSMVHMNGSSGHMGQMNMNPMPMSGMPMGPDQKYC

[14] = tested on: Streptococcus; assay: Group A Streptococcus viability loss, dose response, counter-screen for streptokinase expression inhibitor project, luminescence, BacTiterGlo (AID 1915); type: functional, organism-based;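 note: potency for reduction of bacterial viability or growth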
[15] = tested on: Streptococcus sp. 'group A'; assay: growth inhibition of control SK(-) GAS strain, dose response, counter-screen for streptokinase expression inhibitor project, luminescence, kanamycin, BacTiterGlo, confirmation (AID 1900); type: functional, organism-based
[16] = target: T5, Streptokinase A (Streptococcus pyogenes serotype M1, UniProt P10520); assay: S. pyogenes streptokinase expression inhibitors, potency, dose response, plasminogen activation absorbance, OD405 (AID 1914); type: functional, Streptococcus pyogenes M1 GAS;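 note: secreted streptokinase activity via plasminogen activation per viability signal from cell pellet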
T5 sequence (P10520 whole entry): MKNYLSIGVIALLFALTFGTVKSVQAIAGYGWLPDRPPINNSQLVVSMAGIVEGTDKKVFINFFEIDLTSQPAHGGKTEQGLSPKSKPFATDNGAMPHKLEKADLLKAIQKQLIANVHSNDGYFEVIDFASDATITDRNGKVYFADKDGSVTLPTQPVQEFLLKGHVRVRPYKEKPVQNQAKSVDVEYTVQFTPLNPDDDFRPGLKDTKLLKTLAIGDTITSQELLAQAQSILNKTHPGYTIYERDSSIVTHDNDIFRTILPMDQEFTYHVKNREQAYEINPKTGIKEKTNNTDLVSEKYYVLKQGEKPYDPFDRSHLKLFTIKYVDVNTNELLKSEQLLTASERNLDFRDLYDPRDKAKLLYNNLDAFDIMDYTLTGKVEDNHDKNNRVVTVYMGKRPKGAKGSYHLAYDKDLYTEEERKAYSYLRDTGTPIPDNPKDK

[17] = target: Luciferin 4-monooxygenase (Photinus pyralis, UniProt P08659); assay: Counter Screen for Luciferase-based Assay Positives. [Related pubchem assays: 620, 618, 411 ]
[18] = tested on: HT-1080; assay: cytotoxicity in HT1080 fibrosarcoma cells, cell-based, fluorescence readout (AID 620); type: functional; conditions: Homo sapiens

Chain of Cytochrome P450 3A4 (P08684 whole entry): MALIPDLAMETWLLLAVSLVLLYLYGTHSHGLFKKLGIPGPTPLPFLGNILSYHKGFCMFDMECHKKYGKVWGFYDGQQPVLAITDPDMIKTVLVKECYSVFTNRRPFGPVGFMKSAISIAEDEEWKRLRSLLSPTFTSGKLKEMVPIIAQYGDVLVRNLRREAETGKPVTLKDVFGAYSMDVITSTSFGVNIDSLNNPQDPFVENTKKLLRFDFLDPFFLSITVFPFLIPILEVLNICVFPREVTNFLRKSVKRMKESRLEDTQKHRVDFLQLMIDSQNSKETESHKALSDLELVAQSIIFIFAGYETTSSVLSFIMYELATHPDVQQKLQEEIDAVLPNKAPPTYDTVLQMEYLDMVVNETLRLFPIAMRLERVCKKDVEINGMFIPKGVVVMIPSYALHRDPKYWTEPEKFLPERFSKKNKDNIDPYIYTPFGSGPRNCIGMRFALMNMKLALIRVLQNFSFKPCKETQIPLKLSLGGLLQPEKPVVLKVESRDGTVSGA
T1 sequence (Q9UBE0 whole entry): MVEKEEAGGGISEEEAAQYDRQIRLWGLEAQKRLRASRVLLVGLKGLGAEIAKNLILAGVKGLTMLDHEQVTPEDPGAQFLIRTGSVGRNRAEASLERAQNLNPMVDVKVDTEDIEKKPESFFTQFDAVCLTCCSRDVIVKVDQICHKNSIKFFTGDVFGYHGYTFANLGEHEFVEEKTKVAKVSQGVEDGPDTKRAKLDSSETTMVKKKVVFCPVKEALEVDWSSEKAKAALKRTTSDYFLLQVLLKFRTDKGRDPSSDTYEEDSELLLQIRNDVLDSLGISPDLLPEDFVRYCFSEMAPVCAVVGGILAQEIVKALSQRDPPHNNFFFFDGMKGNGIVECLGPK
T1 sequence (Q9UBT2 whole entry): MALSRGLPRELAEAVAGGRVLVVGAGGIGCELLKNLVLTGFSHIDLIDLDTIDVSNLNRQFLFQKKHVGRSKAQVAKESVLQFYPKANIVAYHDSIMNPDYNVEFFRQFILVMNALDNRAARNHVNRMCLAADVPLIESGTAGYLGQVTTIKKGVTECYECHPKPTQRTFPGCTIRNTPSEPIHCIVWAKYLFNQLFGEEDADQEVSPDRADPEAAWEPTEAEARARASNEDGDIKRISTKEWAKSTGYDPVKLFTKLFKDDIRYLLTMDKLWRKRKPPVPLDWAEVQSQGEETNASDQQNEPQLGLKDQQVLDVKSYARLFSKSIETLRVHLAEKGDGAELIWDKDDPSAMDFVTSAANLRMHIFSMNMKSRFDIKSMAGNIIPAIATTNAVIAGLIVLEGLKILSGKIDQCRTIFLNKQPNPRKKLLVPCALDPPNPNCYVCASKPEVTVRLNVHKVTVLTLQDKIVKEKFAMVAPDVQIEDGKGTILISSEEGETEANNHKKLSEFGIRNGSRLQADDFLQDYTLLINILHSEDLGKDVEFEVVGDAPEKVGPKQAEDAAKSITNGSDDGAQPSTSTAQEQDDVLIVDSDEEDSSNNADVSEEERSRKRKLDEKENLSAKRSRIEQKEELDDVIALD

## C[C@H]1[C@H](C)CC[C@]2(C(=O)O)CC[C@]3(C)C(=CCC4[C@@]5(C)C[C@@H](O)[C@H](O)[C@@](C)(CO)[C@@H]5CC[C@]43C)[C@H]12 (stereo partly specified)
[1]
  AC50: 15.8 µM (inconclusive)

## N#Cc1c(-c2ccc(Cl)cc2)cc(-c2cccs2)nc1SCC(=O)O
[2]
  IC50: > 100 µM (inactive)
[3]
  IC50: 39.7 µM (active)
[4]
  IC50: 6.66 µM (active)
[5]
  IC50: 10.7 µM (active)
[6]
  IC50: 8.73 µM (active)
[7]
  IC50: > 67 µM (not active)

## COc1ccc(C=C(C(C)=O)C(C)=O)cc1OC
[8]
  IC50: > 80 µM (inactive)

## O=C(CSc1ncnc2c1oc1ccccc12)Nc1cccc(F)c1
[9]
  IC50: > 148 µM (not active)
[10]
  EC50: 15.6 µM (not active)
[11]
  EC50: > 26.5 µM (inactive)
[12]
  IC50: > 111 µM (not active)
[13]
  EC50: > 79.4 µM (not active)

## Cn1c(O)c(N=NC(=O)c2cc(-c3cccs3)nc3ccccc23)c2ccccc21
[14]
  EC50: 16.7 µM (active)
[9]
  IC50: 2.73 µM (active)
[15]
  EC50: 9.12 µM (active)
[12]
  IC50: > 111 µM (not active)
[16]
  EC50: > 150 µM (not active)

## c1ccc(N2CCN(Cc3nc4ccccc4[nH]3)CC2)nc1
[1]
  AC50: 25.1 µM (inconclusive)

## Cc1ccc(O)c(/C=N/NC(=O)C2=NNC(c3ccccc3)(c3ccccc3)C2)c1
[17]
  EC50: 5.52 µM (active)
[18]
  EC50: > 50 µM (not active)
